Data as given in ChEMBL document CHEMBL4152201, “Novel sarsasapogenin-triazolyl hybrids as potential anti-Alzheimer's agents: Design, synthesis and biological evaluation” (Eur J Med Chem, 2018).
Blank lines part the entries; values can stand above or below the molecule they belong to. Active and inactive are the calls of the source. No cut-off for these calls is given here.

How the values were obtained:
[1] = molecular target: T1, Amyloid-beta precursor protein (Homo sapiens, UniProt P05067); experiment: Inhibition of amyloid beta (1 to 42) (unknown origin) self-aggregation at 20 uM after 24 hrs by thioflavin-T fluorescence assay relative to control
[2] = molecular target: T1, Amyloid-beta precursor protein; experiment: Inhibition of amyloid beta (1 to 42) (unknown origin) self-aggregation after 24 hrs by thioflavin-T fluorescence assay
[3] = system: SH-SY5Y; experiment: Cytotoxicity against human SH-SY5Y cells at 50 uM after 24 hrs by MTT assay; type: cell-based
[4] = system: SH-SY5Y; experiment: Neuroprotective activity against H2O2-induced oxidative stress in human SH-SY5Y cells assessed as cell viability at 12.5 uM pre-incubated for 1 hr followed by H2O2 addition and measured after 4 hrs by MTT assay relative to control; type: functional; conditions: read-out: Activity
[5] = system: SH-SY5Y; experiment: Neuroprotective activity against H2O2-induced oxidative stress in human SH-SY5Y cells assessed as cell viability at 25 uM pre-incubated for 1 hr followed by H2O2 addition and measured after 4 hrs by MTT assay relative to control; type: functional; conditions: read-out: Activity
[6] = system: SH-SY5Y; experiment: Neuroprotective activity against H2O2-induced oxidative stress in human SH-SY5Y cells assessed as cell viability at 50 uM pre-incubated for 1 hr followed by H2O2 addition and measured after 4 hrs by MTT assay relative to control; type: functional; conditions: read-out: Activity
[7] = system: Mus musculus; experiment: Cognitive enhancing effect in Kunming mouse model of amyloid beta (1 to 42) oligomer-induced memory impairment assessed as […] in spontaneous alternation behaviors at 17.5 to 35 mg/kg/day, po starting from day 1 of amyloid beta (1 to 42) oligomer treatment and measured on day 7 by Y-maze test; type: functional, organism-based
[8] = system: Mus musculus; experiment: Toxicity in Kunming mouse model of amyloid beta (1 to 42) oligomer-induced memory impairment assessed as effect on number of arm entries at 17.5 to 35 mg/kg/day, po starting from day 1 of amyloid beta (1 to 42) oligomer treatment and measured on day 7 by Y-maze test; type: organism-based; conditions: in vivo
[9] = system: Mus musculus; experiment: (§1) Memory enhancing effect in Kunming mouse model of amyloid beta (1 to 42) oligomer-induced memory impairment assessed as increase in preferential index in retention session of 1 hr at 17.5 mg/kg/day, po starting from day 1 of amyloid beta (1 to 42) oligomer treatment and measured on day 7 by novel object recognition test; type: functional, organism-based
[10] = system: Mus musculus; experiment: (§2) Cognitive enhancing effect in Kunming mouse model of amyloid beta (1 to 42) oligomer-induced memory impairment increase in time spent in target quadrant by measuring increase in number of platform crossings at 17.5 to 35 mg/kg/day, po starting from day 1 of amyloid beta (1 to 42) oligomer treatment and measured on day 12 by Morris water maze test; type: functional, organism-based
[11] = system: Mus musculus; experiment: Cognitive enhancing effect in Kunming mouse model of amyloid beta (1 to 42) oligomer-induced memory impairment assessed as longer escape latency at 35 mg/kg, po starting from day 1 of amyloid beta (1 to 42) oligomer treatment and measured on day 7 by passive avoidance test; type: functional, organism-based
[12] = system: Mus musculus; experiment: (§3) Cognitive enhancing effect in Kunming mouse model of amyloid beta (1 to 42) oligomer-induced memory impairment assessed as induction of fewer entries into dark compartment at 35 mg/kg, po starting from day 1 of amyloid beta (1 to 42) oligomer treatment and measured on day 7 by passive avoidance test; type: functional, organism-based
[13] = system: Mus musculus; experiment: (§4) Neuroprotective activity in Kunming mouse model of amyloid beta (1 to 42) oligomer-induced memory impairment assessed as reduction in neural degeneration in CA1 region at 17.5 to 35 mg/kg, po starting from day 1 of amyloid beta (1 to 42) oligomer treatment and measured on day 7 by Nissl's staining-based assay; type: functional, organism-based
[14] = system: Mus musculus; experiment: as §4, with “neuronal” for “neural”, “degeneration by measuring clear and intact neurons” for “degeneration”, “CA1 and CA3” for “CA1”, “TUNEL” for “Nissl's staining-based”; type: functional, organism-based
[15] = system: Mus musculus; experiment: (§5) Neuroprotective activity in Kunming mouse model of amyloid beta (1 to 42) oligomer-induced memory impairment assessed as reduction in neuronal degeneration by measuring reduction in degenerative changes in nucleus of CA1 and CA3 region at 17.5 to 35 mg/kg, po starting from day 1 of amyloid beta (1 to 42) oligomer treatment and measured on day 7 by TUNEL assay; type: functional, organism-based
[16] = system: Mus musculus; experiment: Neuroprotective activity amyloid beta (1 to 42) oligomer-induced memory impaired Kunming mouse assessed as reduction in apoptotic cells in CA1 and CA3 hipocampal neurons at 35 mg/kg, po starting from day 1 of amyloid beta (1 to 42) oligomer treatment and measured on day 7 by TUNEL assay; type: functional, organism-based
[17] = molecular target: T1, Amyloid-beta precursor protein; experiment: Potency index, ratio of IC50 for curcumin to IC50 for test compound for inhibition of amyloid beta (1 to 42) (unknown origin) self-aggregation after 24 hrs by thioflavin-T fluorescence assay
[18] = system: Mus musculus; experiment: as §1, with “17.5 to 35” for “17.5”; type: functional, organism-based
[19] = system: Mus musculus; experiment: Cognitive enhancing effect in Kunming mouse model of amyloid beta (1 to 42) oligomer-induced memory impairment assessed as longer escape latency at 17.5 to 35 mg/kg, po starting from day 1 of amyloid beta (1 to 42) oligomer treatment and measured on day 7 by passive avoidance test; type: functional, organism-based
[20] = system: Mus musculus; experiment: as §3, with “compartment at 17.5 to 35 mg/kg,” for “compartment at 35 mg/kg,”; type: functional, organism-based
[21] = system: Mus musculus; experiment: Neuroprotective activity amyloid beta (1 to 42) oligomer-induced memory impaired Kunming mouse assessed as reduction in apoptotic cells in CA1 and CA3 hipocampal neurons at 1.3 mg/kg, po starting from day 1 of amyloid beta (1 to 42) oligomer treatment and measured on day 7 by TUNEL assay; type: functional, organism-based
[22] = system: Mus musculus; experiment: Cognitive enhancing effect in Kunming mouse model of amyloid beta (1 to 42) oligomer-induced memory impairment assessed as […] in spontaneous alternation behaviors at 1.3 mg/kg/day, po starting from day 1 of amyloid beta (1 to 42) oligomer treatment and measured on day 7 by Y-maze test; type: functional, organism-based
[23] = system: Mus musculus; experiment: Toxicity in Kunming mouse model of amyloid beta (1 to 42) oligomer-induced memory impairment assessed as effect on number of arm entries at 1.3 mg/kg/day, po starting from day 1 of amyloid beta (1 to 42) oligomer treatment and measured on day 7 by Y-maze test; type: organism-based; conditions: in vivo
[24] = system: Mus musculus; experiment: as §1, with “1.3” for “17.5”; type: functional, organism-based
[25] = system: Mus musculus; experiment: as §2, with “1.3” for “17.5 to 35”; type: functional, organism-based
[26] = system: Mus musculus; experiment: Cognitive enhancing effect in Kunming mouse model of amyloid beta (1 to 42) oligomer-induced memory impairment assessed as longer escape latency at 1.3 mg/kg, po starting from day 1 of amyloid beta (1 to 42) oligomer treatment and measured on day 7 by passive avoidance test; type: functional, organism-based
[27] = system: Mus musculus; experiment: as §3, with “1.3” for “35”; type: functional, organism-based
[28] = system: Mus musculus; experiment: as §4, with “1.3” for “17.5 to 35”; type: functional, organism-based
[29] = system: Mus musculus; experiment: as §5, with “measuring clear and intact neurons” for “measuring reduction”, “in” for “in degenerative changes in nucleus of”, “at 1.3” for “at 17.5 to 35”; type: functional, organism-based
[30] = system: Mus musculus; experiment: as §5, with “1.3” for “17.5 to 35”; type: functional, organism-based

T1 sequence (P05067 whole entry): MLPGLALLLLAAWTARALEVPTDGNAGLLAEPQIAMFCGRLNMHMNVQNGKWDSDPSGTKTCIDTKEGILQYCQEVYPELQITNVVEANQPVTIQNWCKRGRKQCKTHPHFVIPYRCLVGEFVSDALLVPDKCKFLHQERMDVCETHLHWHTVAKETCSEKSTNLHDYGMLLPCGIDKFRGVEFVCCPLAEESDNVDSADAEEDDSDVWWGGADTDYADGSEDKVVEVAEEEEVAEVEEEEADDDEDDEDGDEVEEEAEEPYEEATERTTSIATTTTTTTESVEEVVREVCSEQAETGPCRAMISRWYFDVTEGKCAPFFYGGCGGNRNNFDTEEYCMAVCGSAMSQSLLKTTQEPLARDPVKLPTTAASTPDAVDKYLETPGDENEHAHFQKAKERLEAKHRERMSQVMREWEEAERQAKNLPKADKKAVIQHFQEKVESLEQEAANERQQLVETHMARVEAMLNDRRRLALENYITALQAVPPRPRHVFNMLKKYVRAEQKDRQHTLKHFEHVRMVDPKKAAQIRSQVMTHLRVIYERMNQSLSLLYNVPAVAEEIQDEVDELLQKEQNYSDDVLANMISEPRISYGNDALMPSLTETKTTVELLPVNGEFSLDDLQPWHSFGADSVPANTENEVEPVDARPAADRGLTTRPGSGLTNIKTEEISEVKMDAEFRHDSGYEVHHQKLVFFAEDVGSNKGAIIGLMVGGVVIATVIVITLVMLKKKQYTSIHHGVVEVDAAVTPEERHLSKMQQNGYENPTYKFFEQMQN

inhibition [1]: 8.34%
SMILES: C[C@H]1[C@H]2[C@H](C[C@H]3[C@@H]4CC[C@@H]5C[C@@H](OCc6ccccc6)CC[C@]5(C)[C@H]4CC[C@]23C)O[C@@H]1CC[C@H](C)C(=O)NCc1cn(C)nn1

inhibition [1]: 20.8%
SMILES: C[C@H]1[C@H]2[C@H](C[C@H]3[C@@H]4CC[C@@H]5C[C@@H](OCc6ccccc6)CC[C@]5(C)[C@H]4CC[C@]23C)O[C@@H]1CC[C@H](C)C(=O)NCc1cn(Cc2ccncc2)nn1

inhibition [1]: 52.6%
SMILES: CC(C)n1cc(CNC(=O)[C@@H](C)CC[C@H]2O[C@H]3C[C@H]4[C@@H]5CC[C@@H]6C[C@@H](OCc7ccccc7)CC[C@]6(C)[C@H]5CC[C@]4(C)[C@H]3[C@@H]2C)nn1

inhibition [1]: 11.8%
SMILES: CCn1cc(CNC(=O)[C@@H](C)CC[C@H]2O[C@H]3C[C@H]4[C@@H]5CC[C@@H]6C[C@@H](OCc7ccccc7)CC[C@]6(C)[C@H]5CC[C@]4(C)[C@H]3[C@@H]2C)nn1

inhibition [1]: 21.8%
SMILES: CCCn1cc(CNC(=O)[C@@H](C)CC[C@H]2O[C@H]3C[C@H]4[C@@H]5CC[C@@H]6C[C@@H](OCc7ccccc7)CC[C@]6(C)[C@H]5CC[C@]4(C)[C@H]3[C@@H]2C)nn1

inhibition [1]: 75.1%
IC50 [2]: 8.28 µM
Ratio IC50 [17]: 1.8
SMILES: C[C@H]1[C@H]2[C@H](C[C@H]3[C@@H]4CC[C@@H]5C[C@@H](OCc6ccccc6)CC[C@]5(C)[C@H]4CC[C@]23C)O[C@@H]1CC[C@H](C)C(=O)NCc1cn(Cc2cscn2)nn1
Activity [3]: Non-Toxic
viability at 12.5 µM [4]: 71.6%
viability at 25 µM [5]: 73.3%
viability at 50 µM [6]: 84.9%
Activity [7]: Active
Activity [8]: Non-Toxic
Activity [18]: Active
Activity [10]: Active
Activity [19]: Active
Activity [20]: Active
Activity [13]: Active
Activity [14]: Active
Activity [15]: Active
Activity [16]: Active

inhibition [1]: 71.2%
SMILES: Cc1ccc(Cn2cc(CNC(=O)[C@@H](C)CC[C@H]3O[C@H]4C[C@H]5[C@@H]6CC[C@@H]7C[C@@H](OCc8ccccc8)CC[C@]7(C)[C@H]6CC[C@]5(C)[C@H]4[C@@H]3C)nn2)cc1

inhibition [1]: 55.8%
SMILES: C[C@H]1[C@H]2[C@H](C[C@H]3[C@@H]4CC[C@@H]5C[C@@H](OCc6ccccc6)CC[C@]5(C)[C@H]4CC[C@]23C)O[C@@H]1CC[C@H](C)C(=O)NCc1cn(Cc2ccc(Br)cc2)nn1

inhibition [1]: 64.2%
SMILES: C[C@H]1[C@H]2[C@H](C[C@H]3[C@@H]4CC[C@@H]5C[C@@H](OCc6ccccc6)CC[C@]5(C)[C@H]4CC[C@]23C)O[C@@H]1CC[C@H](C)C(=O)NCc1cn(Cc2ccccc2)nn1

The next lines start with the molecule.

SMILES: C[C@H]1[C@H]2[C@H](C[C@H]3[C@@H]4CC[C@@H]5C[C@@H](OCc6ccccc6)CC[C@]5(C)[C@H]4CC[C@]23C)O[C@@H]1CC[C@H](C)C(=O)NCc1cn(Cc2ccc(Cl)cc2)nn1
inhibition [1]: 70.5%

SMILES: COc1ccc(Cn2cc(CNC(=O)[C@@H](C)CC[C@H]3O[C@H]4C[C@H]5[C@@H]6CC[C@@H]7C[C@@H](OCc8ccccc8)CC[C@]7(C)[C@H]6CC[C@]5(C)[C@H]4[C@@H]3C)nn2)cc1
inhibition [1]: 84.7%
IC50 [2]: 5.84 µM
Activity [3]: Non-Toxic
viability at 12.5 µM [4]: 71.8%
viability at 25 µM [5]: 80.9%
viability at 50 µM [6]: 63.1%
Activity [7]: Active
Activity [8]: Non-Toxic
Activity [9]: Active
Activity [10]: Active
Activity [11]: Active
Activity [12]: Active
Activity [13]: Active
Activity [14]: Active
Activity [15]: Active
Activity [16]: Active
Ratio IC50 [17]: 2.6

SMILES: Cc1c(C)c2c(c(C)c1O)CCC(C)(C(=O)O)O2 (stereo not given) [TROLOX]
viability at 12.5 µM [4]: 78.4%
viability at 25 µM [5]: 80.1%
viability at 50 µM [6]: 78.4%

SMILES: COc1cccc(Cn2cc(CNC(=O)[C@@H](C)CC[C@H]3O[C@H]4C[C@H]5[C@@H]6CC[C@@H]7C[C@@H](OCc8ccccc8)CC[C@]7(C)[C@H]6CC[C@]5(C)[C@H]4[C@@H]3C)nn2)c1
inhibition [1]: 64.8%

SMILES: C[C@H]1[C@H]2[C@H](C[C@H]3[C@@H]4CC[C@@H]5C[C@@H](OCc6ccccc6)CC[C@]5(C)[C@H]4CC[C@]23C)O[C@@H]1CC[C@H](C)C(=O)NCc1cn(Cc2ccc(F)cc2)nn1
inhibition [1]: 37.5%

SMILES: COc1cc(Cn2cc(CNC(=O)[C@@H](C)CC[C@H]3O[C@H]4C[C@H]5[C@@H]6CC[C@@H]7C[C@@H](OCc8ccccc8)CC[C@]7(C)[C@H]6CC[C@]5(C)[C@H]4[C@@H]3C)nn2)cc(OC)c1
inhibition [1]: 31.5%

SMILES: C[C@H]1[C@H]2[C@H](C[C@H]3[C@@H]4CC[C@@H]5C[C@@H](OCc6ccccc6)CC[C@]5(C)[C@H]4CC[C@]23C)O[C@@H]1CC[C@H](C)C(=O)NCc1cn(Cc2ccc([N+](=O)[O-])cc2)nn1
inhibition [1]: 70.7%

SMILES: COc1cc2c(cc1OC)C(=O)C(CC1CCN(Cc3ccccc3)CC1)C2.Cl (stereo not given) [DONEPEZIL HYDROCHLORIDE]
Activity [21]: Active
Activity [22]: Active
Activity [23]: Non-Toxic
Activity [24]: Active
Activity [25]: Active
Activity [26]: Active
Activity [27]: Active
Activity [28]: Active
Activity [29]: Active
Activity [30]: Active

SMILES: C[C@H]1CC[C@@]2(OC1)O[C@H]1C[C@H]3[C@@H]4CC[C@@H]5C[C@@H](O)CC[C@]5(C)[C@H]4CC[C@]3(C)[C@H]1[C@@H]2C [SARSASAPOGENIN]
inhibition [1]: 16.4%
IC50 [2]: > 100 µM
viability at 12.5 µM [4]: 68.2%
viability at 25 µM [5]: 71%
viability at 50 µM [6]: 71.3%
